How the values were obtained:
[1] = system: Col1a1, Col3a1, Tgfb1, and Acta2; experiment: Quantitative PCR of fibrosis-related marker mRNA in whole kidney; type: in vivo, mice
Method: [3] […]
(§1) In addition, 8 renal failure markers other than F4/80 and αSMA (4 nephritis-related markers [Tnfa, Il6, Pai-1, and Ccl2] and 4 fibrosis-related markers [Col1a1, Col3a1, Tgfb1, and Acta2]) were also analyzed. […] The expression level of mRNA of genes of the 8 renal failure markers (the 4 nephritis-related markers and the 4 fibrosis-related markers) was detected by performing quantitative PCR using Fast start universal probe master (from Roche Co., Ltd.) under the conditions described in the following 1) to 2). […]
(§2) The number of PCR cycles at which each PCR product reaches a certain amount (threshold cycle: Ct value) was measured using Baseline software (from Applied Biosystems Co., Ltd.); the relative Ct value of the cDNA amplification product of the gene of each of the 8 renal failure markers (the 4 nephritis-related markers and the 4 fibrosis-related markers) based on the Ct value of the cDNA amplification product of the GAPDH gene was determined by a comparative Ct method (delta-delta Ct method); and the relative amount of cDNA of the gene of each of the 8 renal failure markers (the 4 nephritis-related markers and the 4 fibrosis-related markers), i.e., the relative amount of mRNA of the gene of each of the 8 renal failure markers (the 4 nephritis-related markers and the 4 fibrosis-related markers), was calculated from the relative Ct value (see the ordinate of FIG. 5).

[2] = system: chronic renal failure model mice; experiment: Histological analysis of renal tissue (PAS, MTS, picrosirius red) of chronic renal failure model mice; type: in vivo
Method: (§3) Chronic renal failure model mice to which lubiprostone was administered were prepared according to a method consisting of the following processes to [4]. The body weight of mice was measured on a weekly basis, and blood pressure was measured by a tailcuff method.
(§4) [1] Male C57BL/6 mice (purchased from Clea Japan, Inc.) were fed on an ordinary feed (CE-2 from Clea Japan, Inc.) until 6 weeks of age.
(§5) [2] At 7 weeks of age, the mice were divided into an ordinary fed group fed on the ordinary feed (control) and an adenine-diet fed group fed on an ordinary feed containing 0.2% adenine (from Wako) (adenine-diet).
(§6) [3] The adenine-diet fed group was fed by returning the feed to the ordinary feed after 6 weeks of adenine-diet feeding (at 13 weeks of age) and divided into 3 administration groups (“corn-oil administration group” [vehicle], “lubiprostone 50 administration group” [Lubi50], and “lubiprostone 500 administration group” [Lubi500]; corn oil, 50 μg/kg (mouse body weight) of lubiprostone dissolved in corn oil [Amitiza capsule] [from Abbot Japan Co., Ltd.], and 500 μg/kg (mouse body weight) of lubiprostone dissolved in corn oil [from Abbot Japan Co., Ltd.] were forcibly orally administered using a sound to the “corn-oil administration group”, “lubiprostone 50 administration group”, and “lubiprostone 500 administration group”, respectively once daily for 12 days.
[4] After 24 hours, the mice were subjected to cervical dislocation.
(§7) Renal tissue sections were prepared to perform detailed renal tissue analysis. The renal tissue of the chronic renal failure model mice to which lubiprostone was administered prepared by the method described in Example 1 was fixed in 10% neutral-buffer formalin and embedded in paraffin. The paraffin-embedded renal tissue was sliced and analyzed using 3 histological staining methods (periodic acid-Schiff stain [PAS], Masson's trichrome stain [MTS], and picrosirius red stain) (FIG. 3).

[3] = system: chronic renal failure model mice; experiment: BUN and hemoglobin level in blood of chronic renal failure model mice (i-STAT); type: in vivo
Method: The present invention will be more specifically described below with reference to Examples. However, these Examples are not intended to limit the technical scope of the present invention. In Examples, to confirm that the administration of lubiprostone (trade name: Amitiza) could ameliorate renal function, chronic renal failure model mice were prepared by causing mice to eat adenine and analysis was performed using the chronic renal failure model mice. The chronic renal failure model mice are mice in which nephropathy occurs by the crystallization of the eaten adenine in the uriniferous tubule in the form of insoluble 2,8-dihydroxyadenine (Cozzolino, M. et al. Kidney Int. 64, 441-450 (2003) and Tamagaki, K. et al. Nephrol. Dial. Transplant 21, 651-659 (2006)). All experimental animals were operated after approval by the Ethics Committee of Tohoku University School of Medicine.
as §3, §4, §5
[3] […]
Blood was collected according to an established method from the chronic renal failure model mice to which lubiprostone was administered prepared by the method described in Example 1, and the level of BUN in the blood of the mice was measured using i-STAT (from Fuso) (FIG. 2).

[4] = system: Tnfa, Il6, Pai-1, and Ccl2; experiment: Quantitative PCR of nephritis-related marker mRNA in whole kidney; type: in vivo, mice
Method: [3] […]
as §1, §2

[5] = system: αSMA; experiment: DAB staining of renal failure marker protein αSMA in renal tissue sections; type: in vivo, mice; conditions: lubiprostone 50 or 500 μg/kg vs corn oil administration group; FIG. 4 lower
Method: as §6, §7
(§8) F4/80 and αSMA are known as renal failure markers. […]

[6] = system: F4/80; experiment: DAB staining of renal failure marker protein F4/80 in renal tissue sections; type: in vivo, mice; conditions: lubiprostone 50 or 500 μg/kg vs corn oil administration group; FIG. 4 upper
Method: as §6, §7, §8

[7] = Body weight of chronic renal failure model mice given lubiprostone; type: in vivo; conditions: adenine-diet mice; lubiprostone 50 or 500 μg/kg orally once daily for 12 days; FIG. 1
Method: as §3, §4, §5
[3] […]
In the 4 groups (the ordinary fed group, the corn-oil administration group, the lubiprostone 50 administration group, and the lubiprostone 500 administration group), the body weight of mice at 7 weeks of age (immediately after adenine-diet feeding), at 9 weeks of age (at 2 weeks of age after adenine-diet feeding), at 11 weeks of age (at 4 weeks of age after adenine-diet feeding), at 13 weeks of age (immediately after lubiprostone administration), and at cervical dislocation (at 13/7 [≈1.86] weeks after lubiprostone administration) was measured; the results are shown in FIG. 1.

[8] = lubiprostone 500 administration group (500 μg/kg), Dunnett test, FIG. 5

## CCCCC(F)(F)C(=O)CC[C@H]1[C@H](O)CC(=O)[C@@H]1CCCCCCC(=O)O [lubiprostone, (−)-7-[(2R,4aR,5R,7aR)-2-(1,1-difluoropentyl)-2-hydroxy-6-oxooctahydrocyclopenta[b]pyran-5-yl]heptanoic acid]
[1]; [8]
  mRNA of the 4 fibrosis-related markers, statistical difference to the corn oil administration group: a significant difference was noted
[1]; relative to GAPDH, lubiprostone 50 or 500 μg/kg vs corn oil administration group, FIG. 5 panel B
  expression level of mRNA of the 4 fibrosis-related markers (Col1a1, Col3a1, Tgfb1, Acta2): decreased the expression level of mRNA
[2]; lubiprostone 50 or 500 μg/kg vs corn oil administration group, FIG. 3 panel A bottom
  fibrosis of the kidney, collagen fiber staining by picrosirius red stain, renal tissue sections: the fibrosis of the kidney was suppressed
[2]; lubiprostone 50 or 500 μg/kg vs corn oil administration group, FIG. 3 panel A middle
  fibrosis of the kidney, collagen fiber staining by MTS method, renal tissue sections: the fibrosis of the kidney was suppressed
[2]; lubiprostone 50 or 500 μg/kg vs corn oil administration group, FIG. 3 panel A top
  uriniferous tubule, PAS stain of renal tissue sections: recovery of the uriniferous tubule was noted
[2]; lubiprostone 50 or 500 μg/kg vs corn oil administration group, FIG. 3 panel B top
  fibrosis of the kidney, collagen fiber staining by MTS method, whole kidney: the fibrosis of the kidney was suppressed
[2]; lubiprostone 50 or 500 μg/kg vs corn oil administration group, FIG. 3 panels B bottom and C
  decrease of the renal uriniferous tubule (tubules area, MTS method, whole kidney): suppressed in a manner dependent on the dose of lubiprostone
[2]; lubiprostone 500 administration group (500 μg/kg), Dunnett test p<0.01, FIG. 3 panel C
  proportion of the renal uriniferous tubule in the whole kidney, statistical difference to the corn oil administration group: a significant difference was noted
[3]; chronic renal failure model mice given lubiprostone
  level of hemoglobin (Hb) in the blood: did not change
[3]; lubiprostone 50 or 500 μg/kg orally once daily for 12 days vs corn oil administration group, FIG. 2
  increase in the blood BUN level: suppressed in a manner dependent on the dose of lubiprostone
[3]; lubiprostone 500 administration group (500 μg/kg), Dunnett test p<0.05, FIG. 2
  blood BUN level, statistical difference to the corn oil administration group: a significant difference was noted
[4]; [8]
  mRNA of 3 nephritis-related markers (excluding Il6), statistical difference to the corn oil administration group: a significant difference was noted
[4]; relative to GAPDH, lubiprostone 50 or 500 μg/kg vs corn oil administration group, FIG. 5 panel A
  expression level of mRNA of the 4 nephritis-related markers (Tnfa, Il6, Pai-1, Ccl2): decreased the expression level of mRNA
[5]
  increase in the expression of renal failure marker αSMA protein: suppressed
[6]
  increase in the expression of renal failure marker F4/80 protein: suppressed
[7]
  recovery of body weight after return to ordinary feed: did not affect the recovery of body weight
